Results from publication PMC8119466, “A screen of FDA-approved drugs identifies inhibitors of protein tyrosine phosphatase 4A3 (PTP4A3 or PRL-3)” (Scientific Reports, 2021).
Counter-ions that a name gives are not always drawn.

Columns and labels:
Type in all cases: biochemical
Conditions in all cases: FDA-approved drug screen
recombinant PRL-1 = molecular target: T1, recombinant PRL-1 (Homo sapiens, UniProt Q93096); experiment: In vitro phosphatase assay (DiFMUP hydrolysis), PRL-1; also: test concentration or dose not given here
T1 construct: 6xHis (N, cleaved yes); made in house; host or cells: E. coli One Shot BL21 Star
T1 sequence (Q93096 1-173): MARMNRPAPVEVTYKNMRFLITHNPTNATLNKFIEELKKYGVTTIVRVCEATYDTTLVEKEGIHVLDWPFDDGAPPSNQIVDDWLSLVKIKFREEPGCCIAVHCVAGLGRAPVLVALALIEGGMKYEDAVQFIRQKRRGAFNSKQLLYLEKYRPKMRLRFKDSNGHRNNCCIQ

recombinant PRL-3 = molecular target: T2, recombinant PRL-3 (Homo sapiens, UniProt O75365); experiment: In vitro phosphatase assay (DiFMUP hydrolysis), PRL-3; also: test concentration or dose not given here
T2 construct: 6xHis (N, cleaved yes); made in house; host or cells: E. coli One Shot BL21 Star
T2 sequence (O75365 whole entry): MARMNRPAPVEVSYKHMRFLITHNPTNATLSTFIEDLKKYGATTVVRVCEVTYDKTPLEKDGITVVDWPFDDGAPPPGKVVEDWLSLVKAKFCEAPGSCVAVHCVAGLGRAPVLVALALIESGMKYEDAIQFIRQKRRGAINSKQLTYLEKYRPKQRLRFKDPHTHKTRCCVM

recombinant PRL-2 = molecular target: T3, recombinant PRL-2 (Homo sapiens, UniProt Q12974); experiment: In vitro phosphatase assay (DiFMUP hydrolysis), PRL-2;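 also: PRL-2 activity read as DiFMUP hydrolysis after 20 min at room temperature with drug, enzyme first pre-reduced at 4 °C for 20 min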
T3 construct: 6xHis (N, cleaved yes); made in house; host or cells: E. coli One Shot BL21 Star
T3 sequence (Q12974 1-167): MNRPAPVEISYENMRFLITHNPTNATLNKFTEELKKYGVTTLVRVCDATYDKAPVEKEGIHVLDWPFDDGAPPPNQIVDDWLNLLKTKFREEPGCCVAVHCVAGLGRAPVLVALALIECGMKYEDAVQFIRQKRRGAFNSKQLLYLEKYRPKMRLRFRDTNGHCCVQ

SMILES: CC(C)NCC(O)COc1cccc2ccccc12.Cl (stereo not drawn) [Propranolol HCl]
- % Phosphatase Activity (compared to DMSO) PRL-1 (recombinant PRL-1; compared to DMSO): 95%
- % Phosphatase Activity (compared to DMSO) PRL-3 (recombinant PRL-3; compared to DMSO): 70%
- % Phosphatase Activity (compared to DMSO) PRL-2 (recombinant PRL-2; compared to DMSO): 128%

SMILES: CCCNS(=O)(=O)Nc1ncnc(OCCOc2ncc(Br)cn2)c1-c1ccc(Br)cc1 [Macitentan]
- % Phosphatase Activity (compared to DMSO) PRL-1 (recombinant PRL-1; compared to DMSO): 93%
- % Phosphatase Activity (compared to DMSO) PRL-3 (recombinant PRL-3; compared to DMSO): 85%
- % Phosphatase Activity (compared to DMSO) PRL-2 (recombinant PRL-2; compared to DMSO): 75%

SMILES: CCCC(=O)[O-].[Na+] [Sodium butyrate]
- % Phosphatase Activity (compared to DMSO) PRL-1 (recombinant PRL-1; activity compared to DMSO): 97%
- % Phosphatase Activity (compared to DMSO) PRL-3 (recombinant PRL-3; activity compared to DMSO): 89%
- % Phosphatase Activity (compared to DMSO) PRL-2 (recombinant PRL-2; activity compared to DMSO): 90%

SMILES: Cc1cccc(CN2CCN(C(c3ccccc3)c3ccc(Cl)cc3)CC2)c1.Cl.Cl (stereo not drawn) [Meclizine 2HCl]
- % Phosphatase Activity (compared to DMSO) PRL-1 (recombinant PRL-1; compared to DMSO): 103%
- % Phosphatase Activity (compared to DMSO) PRL-3 (recombinant PRL-3; compared to DMSO): 96%
- % Phosphatase Activity (compared to DMSO) PRL-2 (recombinant PRL-2; compared to DMSO): 112%

SMILES: Cc1ccnc2c1NC(=O)c1cccnc1N2C1CC1 [Nevirapine]
- % Phosphatase Activity (compared to DMSO) PRL-1 (recombinant PRL-1; compared to DMSO): 85%
- % Phosphatase Activity (compared to DMSO) PRL-3 (recombinant PRL-3; compared to DMSO): 111%
- % Phosphatase Activity (compared to DMSO) PRL-2 (recombinant PRL-2; compared to DMSO): 101%

SMILES: C=C(c1ccc(C(=O)O)cc1)c1cc2c(cc1C)C(C)(C)CCC2(C)C [Bexarotene]
- % Phosphatase Activity (compared to DMSO) PRL-1 (recombinant PRL-1; compared to DMSO): 81%
- % Phosphatase Activity (compared to DMSO) PRL-3 (recombinant PRL-3; compared to DMSO): 58%
- % Phosphatase Activity (compared to DMSO) PRL-2 (recombinant PRL-2; compared to DMSO): 89%

SMILES: O=C(O)C[C@H](O)C[C@H](O)/C=C/c1c(C2CC2)nc2ccccc2c1-c1ccc(F)cc1 [Pitavastatin Calcium]
- % Phosphatase Activity (compared to DMSO) PRL-1 (recombinant PRL-1; compared to DMSO): 82%
- % Phosphatase Activity (compared to DMSO) PRL-3 (recombinant PRL-3; compared to DMSO): 92%
- % Phosphatase Activity (compared to DMSO) PRL-2 (recombinant PRL-2; compared to DMSO): 88%

SMILES: Cc1c(F)cc(C(=O)NC2CC2)cc1-c1ccc(C(=O)NCC(C)(C)C)cn1 [Losmapimod (GW856553X)]
- % Phosphatase Activity (compared to DMSO) PRL-1 (recombinant PRL-1; compared to DMSO): 91%
- % Phosphatase Activity (compared to DMSO) PRL-3 (recombinant PRL-3; compared to DMSO): 103%
- % Phosphatase Activity (compared to DMSO) PRL-2 (recombinant PRL-2; compared to DMSO): 66%

SMILES: CCCCc1oc2ccc(NS(C)(=O)=O)cc2c1C(=O)c1ccc(OCCCN(CCCC)CCCC)cc1 [Dronedarone HCl]
- % Phosphatase Activity (compared to DMSO) PRL-1 (recombinant PRL-1; compared to DMSO): 116%
- % Phosphatase Activity (compared to DMSO) PRL-3 (recombinant PRL-3; compared to DMSO): 96%
- % Phosphatase Activity (compared to DMSO) PRL-2 (recombinant PRL-2; compared to DMSO): 131%

SMILES: O=C1NC(=O)C(c2ccccc2)(c2ccccc2)N1 [Phenytoin sodium]
- % Phosphatase Activity (compared to DMSO) PRL-1 (recombinant PRL-1; compared to DMSO): 100%
- % Phosphatase Activity (compared to DMSO) PRL-3 (recombinant PRL-3; compared to DMSO): 68%
- % Phosphatase Activity (compared to DMSO) PRL-2 (recombinant PRL-2; compared to DMSO): 100%

SMILES: CN(C)CCCN1c2ccccc2CCc2ccc(Cl)cc21 [Clomipramine HCl]
- % Phosphatase Activity (compared to DMSO) PRL-1 (recombinant PRL-1; compared to DMSO): 108%
- % Phosphatase Activity (compared to DMSO) PRL-3 (recombinant PRL-3; compared to DMSO): 96%
- % Phosphatase Activity (compared to DMSO) PRL-2 (recombinant PRL-2; compared to DMSO): 114%

SMILES: CC(O)(P(=O)(O)O)P(=O)(O)O [Etidronate]
- % Phosphatase Activity (compared to DMSO) PRL-1 (recombinant PRL-1; compared to DMSO): 102%
- % Phosphatase Activity (compared to DMSO) PRL-3 (recombinant PRL-3; compared to DMSO): 91%
- % Phosphatase Activity (compared to DMSO) PRL-2 (recombinant PRL-2; compared to DMSO): 100%

SMILES: Clc1ccc(C(Cn2ccnc2)OCc2csc3c(Cl)cccc23)c(Cl)c1 (stereo not drawn) [Sertaconazole nitrate]
- % Phosphatase Activity (compared to DMSO) PRL-1 (recombinant PRL-1; activity compared to DMSO): 110%
- % Phosphatase Activity (compared to DMSO) PRL-3 (recombinant PRL-3; activity compared to DMSO): 99%
- % Phosphatase Activity (compared to DMSO) PRL-2 (recombinant PRL-2; activity compared to DMSO): 101%

SMILES: CCOC(=O)[C@H]1O[C@@H]1C(=O)N[C@@H](CC(C)C)C(=O)NCCC(C)C [Aloxistatin]
- % Phosphatase Activity (compared to DMSO) PRL-1 (recombinant PRL-1; compared to DMSO): 87%
- % Phosphatase Activity (compared to DMSO) PRL-3 (recombinant PRL-3; compared to DMSO): 86%
- % Phosphatase Activity (compared to DMSO) PRL-2 (recombinant PRL-2; compared to DMSO): 78%

SMILES: NS(=O)(=O)c1cc2c(cc1Cl)NCNS2(=O)=O [Hydrochlorothiazide]
- % Phosphatase Activity (compared to DMSO) PRL-1 (recombinant PRL-1; compared to DMSO): 97%
- % Phosphatase Activity (compared to DMSO) PRL-3 (recombinant PRL-3; compared to DMSO): 76%
- % Phosphatase Activity (compared to DMSO) PRL-2 (recombinant PRL-2; compared to DMSO): 122%

SMILES: CC(=O)OCC(=O)[C@@]1(O)CC[C@H]2[C@@H]3CCC4=CC(=O)CC[C@]4(C)[C@H]3C(=O)C[C@@]21C [Cortisone acetate]
- % Phosphatase Activity (compared to DMSO) PRL-1 (recombinant PRL-1; compared to DMSO): 98%
- % Phosphatase Activity (compared to DMSO) PRL-3 (recombinant PRL-3; compared to DMSO): 78%
- % Phosphatase Activity (compared to DMSO) PRL-2 (recombinant PRL-2; compared to DMSO): 94%

SMILES: CC1(C)CCC(CN2CCN(c3ccc(C(=O)NS(=O)(=O)c4ccc(NCC5CCOCC5)c([N+](=O)[O-])c4)c(Oc4cnc5[nH]ccc5c4)c3)CC2)=C(c2ccc(Cl)cc2)C1 [ABT-199 (GDC-0199)]
- % Phosphatase Activity (compared to DMSO) PRL-1 (recombinant PRL-1; compared to DMSO): 68%
- % Phosphatase Activity (compared to DMSO) PRL-3 (recombinant PRL-3; compared to DMSO): 78%
- % Phosphatase Activity (compared to DMSO) PRL-2 (recombinant PRL-2; compared to DMSO): 30%

SMILES: c1ccc(CC2=NCCN2)cc1 [Tolazoline HCl]
- % Phosphatase Activity (compared to DMSO) PRL-1 (recombinant PRL-1; activity compared to DMSO): 100%
- % Phosphatase Activity (compared to DMSO) PRL-3 (recombinant PRL-3; activity compared to DMSO): 91%
- % Phosphatase Activity (compared to DMSO) PRL-2 (recombinant PRL-2; activity compared to DMSO): 110%

SMILES: [H]/N=C(/N)NS(=O)(=O)c1ccc(N)cc1 [Sulfaguanidine]
- % Phosphatase Activity (compared to DMSO) PRL-1 (recombinant PRL-1; activity compared to DMSO): 97%
- % Phosphatase Activity (compared to DMSO) PRL-3 (recombinant PRL-3; activity compared to DMSO): 77%
- % Phosphatase Activity (compared to DMSO) PRL-2 (recombinant PRL-2; activity compared to DMSO): 90%

SMILES: COc1ccc2c(c1)C(=O)N(CCc1ccc(S(=O)(=O)NC(=O)NC3CCCCC3)cc1)C(=O)C2(C)C [Gliquidone]
- % Phosphatase Activity (compared to DMSO) PRL-1 (recombinant PRL-1; compared to DMSO): 99%
- % Phosphatase Activity (compared to DMSO) PRL-3 (recombinant PRL-3; compared to DMSO): 86%
- % Phosphatase Activity (compared to DMSO) PRL-2 (recombinant PRL-2; compared to DMSO): 86%

SMILES: C=CC(=O)Nc1cccc(Nc2nc(Nc3ccc(N4CCN(C(C)=O)CC4)cc3OC)ncc2C(F)(F)F)c1 [CO-1686 (AVL-301)]
- % Phosphatase Activity (compared to DMSO) PRL-1 (recombinant PRL-1; compared to DMSO): 93%
- % Phosphatase Activity (compared to DMSO) PRL-3 (recombinant PRL-3; compared to DMSO): 98%
- % Phosphatase Activity (compared to DMSO) PRL-2 (recombinant PRL-2; compared to DMSO): 82%

SMILES: CCC(=O)O[C@]1(C(=O)SCF)[C@H](C)C[C@H]2[C@@H]3C[C@H](F)C4=CC(=O)C=C[C@]4(C)[C@@]3(F)[C@@H](O)C[C@@]21C [Fluticasone propionate]
- % Phosphatase Activity (compared to DMSO) PRL-1 (recombinant PRL-1; compared to DMSO): 103%
- % Phosphatase Activity (compared to DMSO) PRL-3 (recombinant PRL-3; compared to DMSO): 90%
- % Phosphatase Activity (compared to DMSO) PRL-2 (recombinant PRL-2; compared to DMSO): 92%

SMILES: C=C[C@]1(C)C[C@@H](OC(=O)CSC(C)(C)CNC(=O)[C@H](N)C(C)C)[C@]2(C)[C@H](C)CC[C@]3(CCC(=O)[C@H]32)[C@@H](C)[C@@H]1O.Cl [Valnemulin HCl]
- % Phosphatase Activity (compared to DMSO) PRL-1 (recombinant PRL-1; activity compared to DMSO): 86%
- % Phosphatase Activity (compared to DMSO) PRL-3 (recombinant PRL-3; activity compared to DMSO): 80%
- % Phosphatase Activity (compared to DMSO) PRL-2 (recombinant PRL-2; activity compared to DMSO): 95%

SMILES: Cc1ccc(C(=O)c2ccc(CC(=O)O)n2C)cc1 [Tolmetin Sodium]
- % Phosphatase Activity (compared to DMSO) PRL-1 (recombinant PRL-1; activity compared to DMSO): 95%
- % Phosphatase Activity (compared to DMSO) PRL-3 (recombinant PRL-3; activity compared to DMSO): 111%
- % Phosphatase Activity (compared to DMSO) PRL-2 (recombinant PRL-2; activity compared to DMSO): 79%

SMILES: COc1cc2c(Oc3ccc4[nH]c(C)cc4c3F)ncnc2cc1OCCCN1CCCC1 [Cediranib (AZD2171)]
- % Phosphatase Activity (compared to DMSO) PRL-1 (recombinant PRL-1; compared to DMSO): 100%
- % Phosphatase Activity (compared to DMSO) PRL-3 (recombinant PRL-3; compared to DMSO): 90%
- % Phosphatase Activity (compared to DMSO) PRL-2 (recombinant PRL-2; compared to DMSO): 105%

SMILES: CCC(NC(C)C)C(O)c1ccc(O)c(O)c1 (stereo not drawn) [Isoetharine Mesylate]
- % Phosphatase Activity (compared to DMSO) PRL-1 (recombinant PRL-1; compared to DMSO): 103%
- % Phosphatase Activity (compared to DMSO) PRL-3 (recombinant PRL-3; compared to DMSO): 93%
- % Phosphatase Activity (compared to DMSO) PRL-2 (recombinant PRL-2; compared to DMSO): 98%
